From ChEMBL document CHEMBL1124139, “2,4-Dihydro-3H-1,2,4-triazole-3-thiones as potential antidepressant agents” (J Med Chem, 1988)

Legend:
[1] = tested on: Rattus norvegicus; assay: Percent inhibitory activity caused by norepinephrine after ip injection of 10 mg/kg administered once a day for 21 days (chronic treatment); type: functional; settings: 504 h, route intraperitoneal
[2] = Acute cytotoxicity was evaluated as LD50 in mice (ip); type: organism-based; settings: mouse, in vivo
[3] = tested on: Rattus norvegicus; assay: Percent inhibitory activity caused by norepinephrine after 1 i.p. injection of 10 mg/kg administered (acute treatment); type: functional; settings: ip, route intraperitoneal
[4] = tested on: Rattus norvegicus; assay: Inhibitory activity of compound against ability of NE to enhance the inhibition produced by GABA after ip injection of 10 mg/kg administered once a day for 21 days (chronic treatment); type: functional; settings: 504 h, route intraperitoneal
[5] = tested on: Rattus norvegicus; assay: Inhibitory activity of compound against ability of NE to enhance the inhibition produced by GABA after 1 i.p. injection of 10 mg/kg administered (acute treatment); type: functional; settings: ip, route intraperitoneal
[6] = species: Rattus norvegicus; assay: Concentration required to inhibit [3H]- NE(norepinephrine) uptake in to rat cortical synaptosomes; type: functional; parameters: scale not given: the % may be the effect or the level left; settings: Brain
[7] = species: Mus musculus; assay: Antidepressant activity was evaluated by measuring its ability to antagonize reserpine-induced ptosis in mice; type: functional
[8] = species: Mus musculus; assay: Antidepressant activity was evaluated by measuring its ability to antagonize RO 4-1284-induced hypothermia in mice; type: functional
[9] = molecular target: T1, Amine oxidase [flavin-containing] B (Rattus norvegicus, UniProt P19643); assay: Concentration required to inhibit Monoamine oxidase B in rat brain using [14C]phenylethylamine; type: tissue-based; parameters: Control: scale not given: the % may be the effect or the level left
T1 sequence (P19643 whole entry): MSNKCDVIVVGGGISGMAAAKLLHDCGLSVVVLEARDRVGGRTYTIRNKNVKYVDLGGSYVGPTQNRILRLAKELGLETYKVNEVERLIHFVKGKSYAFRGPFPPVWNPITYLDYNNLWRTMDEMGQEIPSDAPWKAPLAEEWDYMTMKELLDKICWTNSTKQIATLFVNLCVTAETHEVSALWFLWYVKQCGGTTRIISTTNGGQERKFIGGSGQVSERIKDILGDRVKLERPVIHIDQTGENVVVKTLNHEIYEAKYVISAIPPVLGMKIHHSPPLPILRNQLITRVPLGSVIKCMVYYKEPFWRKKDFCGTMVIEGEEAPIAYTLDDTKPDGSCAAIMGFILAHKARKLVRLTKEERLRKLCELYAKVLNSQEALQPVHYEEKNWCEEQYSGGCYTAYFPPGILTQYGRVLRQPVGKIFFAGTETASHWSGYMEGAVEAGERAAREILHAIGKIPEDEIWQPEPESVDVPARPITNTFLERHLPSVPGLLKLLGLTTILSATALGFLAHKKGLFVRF

[10] = molecular target: T2, Amine oxidase [flavin-containing] A (Rattus norvegicus, UniProt P21396); assay: Concentration required to inhibit Monoamine oxidase A activity in rat brain using [14C]5-HT; type: tissue-based
T2 sequence (P21396 whole entry): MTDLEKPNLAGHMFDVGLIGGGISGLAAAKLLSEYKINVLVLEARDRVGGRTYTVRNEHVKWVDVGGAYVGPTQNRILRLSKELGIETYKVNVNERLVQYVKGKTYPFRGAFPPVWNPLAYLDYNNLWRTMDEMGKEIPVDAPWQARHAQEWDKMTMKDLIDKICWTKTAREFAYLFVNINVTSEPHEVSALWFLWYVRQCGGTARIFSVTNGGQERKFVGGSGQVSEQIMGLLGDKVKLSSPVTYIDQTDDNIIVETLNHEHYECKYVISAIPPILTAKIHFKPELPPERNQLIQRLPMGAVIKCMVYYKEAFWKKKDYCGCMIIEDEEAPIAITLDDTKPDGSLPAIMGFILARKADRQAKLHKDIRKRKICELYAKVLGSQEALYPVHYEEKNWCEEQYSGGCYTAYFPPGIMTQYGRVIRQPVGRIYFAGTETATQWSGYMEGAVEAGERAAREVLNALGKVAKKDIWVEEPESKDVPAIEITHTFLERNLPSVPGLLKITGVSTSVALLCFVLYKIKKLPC

[11] = species: Rattus norvegicus; assay: Concentration required to inhibit [3H]- NE(norepinephrine) uptake into rat cortical synaptosomes; type: functional; parameters: scale not given: the % may be the effect or the level left; settings: Brain
[12] = tested on: Rattus norvegicus; assay: Ability of compound to inhibity the ability of NE to enhance the inhibition produced by GABA after 1 i.p. injection of 10 mg/kg administered (acute treatment); type: functional; settings: ip, route intraperitoneal
[13] = tested on: Rattus norvegicus; assay: Ability of compound to inhibity the ability of NE to enhance the inhibition produced by GABA after ip injection of 10 mg/kg administered once a day for 21 days (chronic treatment); type: functional; settings: 504 h, route intraperitoneal

Row | SMILES | LD50 [2] | ED50 [7] | ED50 [8] | other results
1 | CNCCCN1c2ccccc2CCc2ccccc21 [DESIPRAMINE] | 75 mg/kg | 1.86 mg/kg | 0.94 mg/kg | inhibition in vivo at 10 mg/kg [1]: 7.8%; inhibition in vivo at 10 mg/kg [3]: 3.5%; inhibition in vivo at 10 mg/kg [4]: 49%; inhibition in vivo at 10 mg/kg [5]: 68%; Control [6]: 37%
2 | CC(Cc1ccccc1)NN (stereo not given) [PHENIPRAZINE] | 100 mg/kg | 1.61 mg/kg | 1.1 mg/kg | –
3 | C#CCN(C)[C@H](C)Cc1ccccc1 [SELEGILINE] | 200 mg/kg | 4.9 mg/kg | 1.8 mg/kg | Control [9]: 13%
4 | Cc1ccc(-c2nn(C)c(=S)n2C)cc1 | 400 mg/kg | 4.2 mg/kg | 1.74 mg/kg | –
5 | CCn1nc(-c2ccc(Cl)cc2)n(C)c1=S | 400 mg/kg | 100 mg/kg | > 50 mg/kg | –
6 | C#CCN(C)Cc1ccccc1 [PARGYLINE] | 400 mg/kg | 37.1 mg/kg | 13.6 mg/kg | –
7 | CCn1c(-c2ccccc2)nn(C)c1=S | 400 mg/kg | 1.2 mg/kg | 0.58 mg/kg | –
8 | Cn1c(S)nnc1-c1ccccc1 | > 800 mg/kg | > 200 mg/kg | > 50 mg/kg | –
9 | CCn1c(-c2ccc(Cl)cc2)nn(C)c1=S | > 800 mg/kg | 21.2 mg/kg | > 50 mg/kg | –
10 | Cn1nc(-c2ccc(Cl)c(Cl)c2)n(C)c1=S | > 800 mg/kg | 4.4 mg/kg | 29 mg/kg | –
11 | Cn1nc(-c2ccc(Cl)cc2)nc1S | > 800 mg/kg | > 200 mg/kg | > 50 mg/kg | –
12 | Cn1c(S)nnc1-c1ccc(Cl)cc1 | > 800 mg/kg | > 200 mg/kg | > 50 mg/kg | –
13 | Cn1nc(-c2ccc(F)cc2)n(C)c1=S | 200 mg/kg | 1 mg/kg | 0.61 mg/kg | MAO-A activity remaining (% of control) [10]: 70%; MAO-B activity (% of control) [9]: 90%; Control [6]: 104%
14 | Cn1nc(-c2cccc(F)c2)n(C)c1=S [SURITOZOLE] | 200 mg/kg | 0.29 mg/kg | 0.37 mg/kg | MAO-A activity remaining (% of control) [10]: 105%; MAO-B activity (% of control) [9]: 96%; Control [6]: 110%
15 | Cn1nc(-c2ccc3c(c2)OCO3)n(C)c1=S | > 800 mg/kg | > 200 mg/kg | > 50 mg/kg | –
16 | Cn1nc(-c2ccccc2)n(C)c1=O | 400 mg/kg | > 200 mg/kg | > 50 mg/kg | –
17 | CCCn1c(-c2ccc(Cl)cc2)nn(C)c1=S | 200 mg/kg | 12.5 mg/kg | > 12.5 mg/kg | –
18 | Cn1c(S)nnc1-c1ccccc1F | > 800 mg/kg | > 200 mg/kg | > 25 mg/kg | –

Row | SMILES | LD50 [2] | ED50 [7] | ED50 [8] | other results
19 | Cn1nc(-c2ccccc2F)n(C)c1=S | 400 mg/kg | 0.23 mg/kg | 0.74 mg/kg | Control [11]: 106%; MAO-A activity remaining (% of control) [10]: 72%; MAO-B activity (% of control) [9]: 96%
20 | Cn1nc(-c2c(F)cccc2F)n(C)c1=S | 400 mg/kg | 0.36 mg/kg | 0.44 mg/kg | MAO-A activity remaining (% of control) [10]: 104%; MAO-B activity (% of control) [9]: 97%; Control [6]: 105%
21 | Cn1nc(-c2c(Cl)cccc2Cl)n(C)c1=S | 400 mg/kg | > 100 mg/kg | > 50 mg/kg | –
22 | CNCCCC1c2ccccc2C=Cc2ccccc21 [PROTRIPTYLINE] | 50 mg/kg | 0.43 mg/kg | 0.14 mg/kg | –
23 | Cn1nc(-c2ccccc2)n(C)c1=S | 100 mg/kg | 0.13 mg/kg | 0.15 mg/kg | Control [11]: 92%; MAO-A activity remaining (% of control) [10]: 104%; MAO-B activity (% of control) [9]: 110%
24 | Cn1nc(-c2cccc3ccccc23)n(C)c1=S | > 800 mg/kg | > 200 mg/kg | > 50 mg/kg | –
25 | Cn1nc(-c2cccc(C(F)(F)F)c2)n(C)c1=S | 400 mg/kg | > 200 mg/kg | > 50 mg/kg | –
26 | Cn1nc(-c2ccccc2Cl)n(C)c1=S | 200 mg/kg | 0.58 mg/kg | 0.37 mg/kg | –
27 | CN(C)CCC=C1c2ccccc2CCc2ccccc21 [AMITRIPTYLINE] | 100 mg/kg | 8.73 mg/kg | 0.36 mg/kg | –
28 | CN(C)CCCN1c2ccccc2CCc2ccccc21 [IMIPRAMINE] | – | – | 0.5 mg/kg | –
29 | Cn1nc(-c2ccc(F)cc2F)n(C)c1=S | 400 mg/kg | 2.37 mg/kg | 1 mg/kg | –
30 | Sc1n[nH]c(-c2ccc(Cl)cc2)n1 | > 800 mg/kg | > 200 mg/kg | > 50 mg/kg | –
31 | CNCCC=C1c2ccccc2CCc2ccccc21 [NORTRIPTYLINE] | 50 mg/kg | 4.85 mg/kg | 0.71 mg/kg | –
32 | COc1ccc(-c2nn(C)c(=S)n2C)cc1 | > 800 mg/kg | 3.3 mg/kg | > 25 mg/kg | –
33 | Cn1nc(-c2ccc(Cl)cc2)n(C)c1=S | 400 mg/kg | 0.27 mg/kg | 1.34 mg/kg | inhibition in vivo at 10 mg/kg [1]: 10.9%; MAO-A activity remaining (% of control) [10]: 109%; inhibition in vivo at 10 mg/kg [3]: 6.3%; inhibition in vivo at 10 mg/kg [12]: 33%; MAO-B activity (% of control) [9]: 75%; Control [6]: 90%; inhibition in vivo at 10 mg/kg [13]: 0%
34 | Fc1ccc(-c2n[nH]c(S)n2)cc1 | 400 mg/kg | > 200 mg/kg | > 50 mg/kg | –
35 | Cn1nc(-c2ccc(Cl)cc2Cl)n(C)c1=S | > 80 mg/kg | – | > 25 mg/kg | –
